Assay results published in ChEMBL document CHEMBL6074620, “Discovery of a triphenylamine-based ligand that targets mitochondrial DNA G-quadruplexes and activates the cGAS-STING immunomodulatory pathway” (Eur J Med Chem, 2024).
Calls of active or inactive are those of the source. The rule behind the calls is not given here.

Key:
[1] = biological target: Quadruplex DNA; experiment: Binding affinity to 3-terminal mt6363 DNA (unknown origin) assessed as dissociation constant by TAMRA-labeled G4 quenching assay; type: nucleic-acid assay
[2] = biological target: Quadruplex DNA; experiment: Binding affinity to 5-terminal mt6363 DNA (unknown origin) assessed as dissociation constant by TAMRA-labeled G4 quenching assay; type: nucleic-acid assay
[3] = tested on: MDA-MB-231; experiment: Cytotoxicity against human MDA-MB-231 cells assessed as reduction in cell viability incubated for 24 hrs by CCK-8 assay; type: functional, cell-based; conditions: MDA-MB-231, 24 h
[4] = tested on: 4T1; experiment: Cytotoxicity against mouse 4T1 cells assessed as reduction in cell viability incubated for 24 hrs by CCK-8 assay; type: functional, cell-based; conditions: 4T1, 24 h
[5] = Cytotoxicity against human MCF-10A assessed as cell growth inhibition incubated for 24 hrs by CCK-8 assay; type: toxicity, cell-based; conditions: MCF-10A cells
[6] = tested on: Mus musculus; experiment: Immunostimulatory activity in female BALB/c mouse implanted with mouse 4T1 cells assessed as increase in CD8+ T cells in spleen 2.5 mg/kg, iv by flow cytometry; type: functional, organism-based

Row | Structure (SMILES) | Kd [1] | Kd [2] | IC50 [3] | IC50 [4] | IC50 at 24 h [5] | Activity [6]
1 | COc1ccc(N(c2ccc(/C=C/C3=[N+](C)c4ccccc4C3(C)C)cc2)c2ccc(OC)cc2)cc1 | 2.1 µM | 4.3 µM | 4 µM | 3.5 µM | 8.5 µM | 
2 | COc1cccc2c1C(=O)c1c(O)c3c(c(O)c1C2=O)C[C@@](O)(C(=O)CO)C[C@@H]3O[C@H]1C[C@H](N)[C@H](O)[C@H](C)O1 |  |  |  |  |  | Active
3 | C[n+]1c(/C=C/c2ccc(N(c3ccccc3)c3ccccc3)cc2)ccc2ccccc21 | 5 µM | 5.5 µM | 3.4 µM | 9.6 µM | 38 µM | 
4 | COc1ccc(N(c2ccc(/C=C/c3ccc4ccccc4[n+]3C)cc2)c2ccc(OC)cc2)cc1 | 3.2 µM | 9 µM | 5.4 µM | 9.9 µM | 39.4 µM | 

More lines, main results first:

Row | Kd [1] | Kd [2] | Structure (SMILES) | IC50 [3] | IC50 [4] | IC50 at 24 h [5] | Activity [6]
5 | 6.3 µM | 7.3 µM | C[N+]1=C(/C=C/c2ccc(N(c3ccccc3)c3ccccc3)cc2)C(C)(C)c2ccccc21 | 2.6 µM | 4.8 µM | 5 µM | 
6 | 1.1 µM | 1.4 µM | C[N+]1=C(/C=C/c2ccc(N(c3ccccc3)c3ccccc3)cc2)C(C)(C)c2c1ccc1ccccc21 | 2.8 µM | 4.3 µM | 7 µM | 
